From patent US20260022142A1, “MACROCYCLIC IMMUNOMODULATORS” (Bristol-Myers Squibb Company, priority 2022, published 2026)
Bridge positions count the residues as written; N and C are the ends. Square brackets hold non-standard residues; d marks the D form. Peptide text beside a SMILES is read from it. * marks the point of attachment. Phe(3,4,5-F3) = N[C@@H](Cc1cc(F)c(F)c(F)c1)C(=O)O; Bip = N[C@@H](Cc1ccc(-c2ccccc2)cc1)C(=O)O; Phe(3-Me) = Cc1cccc(C[C@H](N)C(=O)O)c1; Val(3-OH) = CC(C)(O)[C@H](N)C(=O)O; 4Pal = N[C@@H](Cc1ccncc1)C(=O)O; Cha = N[C@@H](CC1CCCCC1)C(=O)O; Gly(cPr) = N[C@H](C(=O)O)C1CC1; aThr = C[C@H](O)[C@H](N)C(=O)O; Carboxymethyl = O=C(O)C*; Nle = CCCC[C@H](N)C(=O)O; Orn = NCCC[C@H](N)C(=O)O; Aun = NCCCCCCCCCCC(=O)O; Dab = NCC[C@H](N)C(=O)O; Nva = CCC[C@H](N)C(=O)O

Molecular target: T1, PD-1/PD-L1 interaction (PE-labeled human PD-L1-Ig binding to Jurkat cell line over-expressing human PD-1) (Homo sapiens, UniProt Q15116)
T1 construct: expressed in transfected cells; host or cells: Jurkat
Assay: Jurkat-PD-1 Cell Binding High-Content Screening Assay (CBA)
Format: cell-based
Conditions: Jurkat cell line over-expressing human PD-1; PE-labeled PD-L1-Ig 20 nM final; read-out: Jurkat hPD1-PDL1 IC50
Outline: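 Jurkat cells over-expressing human PD-1 (8×10^3 per well, DMEM/10% FCS) preincubated with compound 2 h at 37° C, then PE-labeled human PD-L1-Ig (20 nM final) added for 1 h. Cells fixed with paraformaldehyde, Hoechst-stained, and bound fluorescence quantified by high-content imaging.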

T1 sequence (Q15116 25-288): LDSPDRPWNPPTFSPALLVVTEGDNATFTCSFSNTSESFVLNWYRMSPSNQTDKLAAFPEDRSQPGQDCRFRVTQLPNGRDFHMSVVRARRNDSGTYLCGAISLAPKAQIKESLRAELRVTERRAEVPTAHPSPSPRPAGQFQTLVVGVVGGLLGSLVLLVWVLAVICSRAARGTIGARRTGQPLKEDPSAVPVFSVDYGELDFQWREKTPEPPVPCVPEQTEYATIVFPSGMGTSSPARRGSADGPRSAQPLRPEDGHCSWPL

Row | Compound | IC50 [nM]
1 | Cc1cccc(C[C@@H]2NC(=O)[C@H](CC(=O)O)NC(=O)[C@H](Cc3cc(F)c(F)c(F)c3)NC(=O)[C@H](Cc3ccncc3)NC(=O)CSC[C@@H](C(=O)N[C@@H](CCN)C(=O)NCCCCCCCCCCC(=O)O)NC(=O)[C@H](CO)NC(=O)[C@H](C(C)(C)O)NC(=O)[C@H](CC3CCCCC3)NC(=O)[C@H](CCN)NC(=O)[C@@H](CC(C)C)NC(=O)[C@H](CCCN)NC(=O)[C@H](Cc3ccc(OCC(=O)O)cc3)NC(=O)[C@H](Cc3ccc(-c4ccccc4)cc3)NC(=O)[C@H](Cc3ccc(OCC(=O)O)cc3)NC2=O)c1 [Compound 2200] ({CH2CO}-[4Pal][Phe(3,4,5-F3)]D[Phe(3-Me)]Y(Carboxymethyl)[Bip]Y(Carboxymethyl)[Orn][dL][Dab][Cha][Val(3-OH)]SC[Dab][Aun]-OH; thioether N-14) | 28.8
2 | CC(C)C[C@H]1NC(=O)[C@H](CCCN)NC(=O)[C@H](Cc2ccc(OCC(=O)O)cc2)NC(=O)[C@H](Cc2ccc(-c3ccccc3)cc2)NC(=O)[C@H](Cc2ccc(OCC(=O)O)cc2)NC(=O)[C@H](Cc2cc(F)c(F)c(F)c2)NC(=O)[C@H](CC(=O)O)NC(=O)[C@H](Cc2ccc(OCC(=O)O)cc2)NC(=O)[C@H](Cc2ccncc2)NC(=O)CSC[C@@H](C(=O)N[C@@H](CCN)C(=O)NCCCCCCCCCCC(=O)O)NC(=O)[C@H](CO)NC(=O)[C@H](C(C)(C)O)NC(=O)[C@H](CC2CCCCC2)NC(=O)[C@H](CCN)NC1=O [Compound 2201] ({CH2CO}-[4Pal]Y(Carboxymethyl)D[Phe(3,4,5-F3)]Y(Carboxymethyl)[Bip]Y(Carboxymethyl)[Orn][dL][Dab][Cha][Val(3-OH)]SC[Dab][Aun]-OH; thioether N-14) | 78.4
3 | Cc1cccc(C[C@@H]2NC(=O)[C@H](CC(=O)O)NC(=O)[C@H](Cc3ccc(OCC(=O)O)cc3)NC(=O)[C@H](Cc3ccncc3)NC(=O)CSC[C@@H](C(=O)N[C@@H](CCN)C(=O)NCCCCCCCCCCC(=O)O)NC(=O)[C@H](CO)NC(=O)[C@H](C(C)(C)O)NC(=O)[C@H](CC3CCCCC3)NC(=O)[C@H](CCN)NC(=O)[C@@H](CC(C)C)NC(=O)[C@H](CCCN)NC(=O)[C@H](Cc3ccc(OCC(=O)O)cc3)NC(=O)[C@H](Cc3ccc(-c4ccccc4)cc3)NC(=O)[C@H](Cc3cc(F)c(F)c(F)c3)NC2=O)c1 [Compound 2202] ({CH2CO}-[4Pal]Y(Carboxymethyl)D[Phe(3-Me)][Phe(3,4,5-F3)][Bip]Y(Carboxymethyl)[Orn][dL][Dab][Cha][Val(3-OH)]SC[Dab][Aun]-OH; thioether N-14) | 25.9
4 | Cc1cccc(C[C@@H]2NC(=O)[C@H](CC(=O)O)NC(=O)[C@H](Cc3ccc(OCC(=O)O)cc3)NC(=O)[C@H](Cc3ccncc3)NC(=O)CSC[C@@H](C(=O)N[C@@H](CCN)C(=O)NCCCCCCCCCCC(=O)O)NC(=O)[C@H](CO)NC(=O)[C@H](C(C)(C)O)NC(=O)[C@H](CC3CCCCC3)NC(=O)[C@H](CCN)NC(=O)[C@@H](CC(C)C)NC(=O)[C@H](CCCN)NC(=O)[C@H](Cc3cc(F)c(F)c(F)c3)NC(=O)[C@H](Cc3ccc(-c4ccccc4)cc3)NC(=O)[C@H](Cc3ccc(OCC(=O)O)cc3)NC2=O)c1 [Compound 2203] ({CH2CO}-[4Pal]Y(Carboxymethyl)D[Phe(3-Me)]Y(Carboxymethyl)[Bip][Phe(3,4,5-F3)][Orn][dL][Dab][Cha][Val(3-OH)]SC[Dab][Aun]-OH; thioether N-14) | 41.7
5 | CCC[C@@H]1NC(=O)CSC[C@@H](C(=O)N[C@@H](CCN)C(=O)NCCCCCCCCCCC(=O)O)NC(=O)[C@H](CO)NC(=O)[C@H](C(C)(C)O)NC(=O)[C@H](CC2CCCCC2)NC(=O)[C@H](CCN)NC(=O)[C@@H](CC(C)C)NC(=O)[C@H](CCCN)NC(=O)[C@H](Cc2ccc(OCC(=O)O)cc2)NC(=O)[C@H](Cc2ccc(-c3ccccc3)cc2)NC(=O)[C@H](Cc2ccc(OCC(=O)O)cc2)NC(=O)[C@H](Cc2cccc(C)c2)NC(=O)[C@H](CC(=O)O)NC(=O)[C@H](Cc2ccc(OCC(=O)O)cc2)NC1=O [Compound 2204] ({CH2CO}-[Nva]Y(Carboxymethyl)D[Phe(3-Me)]Y(Carboxymethyl)[Bip]Y(Carboxymethyl)[Orn][dL][Dab][Cha][Val(3-OH)]SC[Dab][Aun]-OH; thioether N-14) | 10.6
6 | Cc1cccc(C[C@@H]2NC(=O)[C@H](CC(=O)O)NC(=O)[C@H](Cc3ccc(OCC(=O)O)cc3)NC(=O)[C@H]([C@H](C)O)NC(=O)CSC[C@@H](C(=O)N[C@@H](CCN)C(=O)NCCCCCCCCCCC(=O)O)NC(=O)[C@H](CO)NC(=O)[C@H](C(C)(C)O)NC(=O)[C@H](CC3CCCCC3)NC(=O)[C@H](CCN)NC(=O)[C@@H](CC(C)C)NC(=O)[C@H](CCCN)NC(=O)[C@H](Cc3ccc(OCC(=O)O)cc3)NC(=O)[C@H](Cc3ccc(-c4ccccc4)cc3)NC(=O)[C@H](Cc3ccc(OCC(=O)O)cc3)NC2=O)c1 [Compound 2205] ({CH2CO}-[aThr]Y(Carboxymethyl)D[Phe(3-Me)]Y(Carboxymethyl)[Bip]Y(Carboxymethyl)[Orn][dL][Dab][Cha][Val(3-OH)]SC[Dab][Aun]-OH; thioether N-14) | 12.5
7 | COC[C@@H]1NC(=O)CSC[C@@H](C(=O)N[C@@H](CCN)C(=O)NCCCCCCCCCCC(=O)O)NC(=O)[C@H](CO)NC(=O)[C@H](C(C)(C)O)NC(=O)[C@H](CC2CCCCC2)NC(=O)[C@H](CCN)NC(=O)[C@@H](CC(C)C)NC(=O)[C@H](CCCN)NC(=O)[C@H](Cc2ccc(OCC(=O)O)cc2)NC(=O)[C@H](Cc2ccc(-c3ccccc3)cc2)NC(=O)[C@H](Cc2ccc(OCC(=O)O)cc2)NC(=O)[C@H](Cc2cccc(C)c2)NC(=O)[C@H](CC(=O)O)NC(=O)[C@H](Cc2ccc(OCC(=O)O)cc2)NC1=O [Compound 2207] ({CH2CO}-S(Me)Y(Carboxymethyl)D[Phe(3-Me)]Y(Carboxymethyl)[Bip]Y(Carboxymethyl)[Orn][dL][Dab][Cha][Val(3-OH)]SC[Dab][Aun]-OH; thioether N-14) | 7.6
8 | Cc1cccc(C[C@@H]2NC(=O)[C@H](CC(=O)O)NC(=O)[C@H](Cc3ccc(OCC(=O)O)cc3)NC(=O)[C@H]([C@@H](C)O)NC(=O)CSC[C@@H](C(=O)N[C@@H](CCN)C(=O)NCCCCCCCCCCC(=O)O)NC(=O)[C@H](CO)NC(=O)[C@H](C(C)(C)O)NC(=O)[C@H](CC3CCCCC3)NC(=O)[C@H](CCN)NC(=O)[C@@H](CC(C)C)NC(=O)[C@H](CCCN)NC(=O)[C@H](Cc3ccc(OCC(=O)O)cc3)NC(=O)[C@H](Cc3ccc(-c4ccccc4)cc3)NC(=O)[C@H](Cc3ccc(OCC(=O)O)cc3)NC2=O)c1 [Compound 2208] ({CH2CO}-TY(Carboxymethyl)D[Phe(3-Me)]Y(Carboxymethyl)[Bip]Y(Carboxymethyl)[Orn][dL][Dab][Cha][Val(3-OH)]SC[Dab][Aun]-OH; thioether N-14) | 14
9 | Cc1cccc(C[C@@H]2NC(=O)[C@H](CC(=O)O)NC(=O)[C@H](Cc3ccc(OCC(=O)O)cc3)NC(=O)CNC(=O)CSC[C@@H](C(=O)N[C@@H](CCN)C(=O)NCCCCCCCCCCC(=O)O)NC(=O)[C@H](CO)NC(=O)[C@H](C(C)(C)O)NC(=O)[C@H](CC3CCCCC3)NC(=O)[C@H](CCN)NC(=O)[C@@H](CC(C)C)NC(=O)[C@H](CCCN)NC(=O)[C@H](Cc3ccc(OCC(=O)O)cc3)NC(=O)[C@H](Cc3ccc(-c4ccccc4)cc3)NC(=O)[C@H](Cc3ccc(OCC(=O)O)cc3)NC2=O)c1 [Compound 2209] ({CH2CO}-GY(Carboxymethyl)D[Phe(3-Me)]Y(Carboxymethyl)[Bip]Y(Carboxymethyl)[Orn][dL][Dab][Cha][Val(3-OH)]SC[Dab][Aun]-OH; thioether N-14) | 45.5
10 | CCCC[C@@H]1NC(=O)CSC[C@@H](C(=O)N[C@@H](CCN)C(=O)NCCCCCCCCCCC(=O)O)NC(=O)[C@H](CO)NC(=O)[C@H](C(C)(C)O)NC(=O)[C@H](CC2CCCCC2)NC(=O)[C@H](CCN)NC(=O)[C@@H](CC(C)C)NC(=O)[C@H](CCCN)NC(=O)[C@H](Cc2ccc(OCC(=O)O)cc2)NC(=O)[C@H](Cc2ccc(-c3ccccc3)cc2)NC(=O)[C@H](Cc2ccc(OCC(=O)O)cc2)NC(=O)[C@H](Cc2cccc(C)c2)NC(=O)[C@H](CC(=O)O)NC(=O)[C@H](Cc2ccc(OCC(=O)O)cc2)NC1=O [Compound 2210] ({CH2CO}-[Nle]Y(Carboxymethyl)D[Phe(3-Me)]Y(Carboxymethyl)[Bip]Y(Carboxymethyl)[Orn][dL][Dab][Cha][Val(3-OH)]SC[Dab][Aun]-OH; thioether N-14) | 8.8
11 | Cc1cccc(C[C@@H]2NC(=O)[C@H](CC(=O)O)NC(=O)[C@H](Cc3ccc(OCC(=O)O)cc3)NC(=O)[C@H](C3CC3)NC(=O)CSC[C@@H](C(=O)N[C@@H](CCN)C(=O)NCCCCCCCCCCC(=O)O)NC(=O)[C@H](CO)NC(=O)[C@H](C(C)(C)O)NC(=O)[C@H](CC3CCCCC3)NC(=O)[C@H](CCN)NC(=O)[C@@H](CC(C)C)NC(=O)[C@H](CCCN)NC(=O)[C@H](Cc3ccc(OCC(=O)O)cc3)NC(=O)[C@H](Cc3ccc(-c4ccccc4)cc3)NC(=O)[C@H](Cc3ccc(OCC(=O)O)cc3)NC2=O)c1 [Compound 2211] ({CH2CO}-[Gly(cPr)]Y(Carboxymethyl)D[Phe(3-Me)]Y(Carboxymethyl)[Bip]Y(Carboxymethyl)[Orn][dL][Dab][Cha][Val(3-OH)]SC[Dab][Aun]-OH; thioether N-14) | 9
12 | Cc1cccc(C[C@@H]2NC(=O)[C@H](CC(=O)O)NC(=O)[C@H](Cc3ccc(OCC(=O)O)cc3)NC(=O)[C@H](CCCN)NC(=O)CSC[C@@H](C(=O)N[C@@H](CCN)C(=O)NCCCCCCCCCCC(=O)O)NC(=O)[C@H](CO)NC(=O)[C@H](C(C)(C)O)NC(=O)[C@H](CC3CCCCC3)NC(=O)[C@H](CCN)NC(=O)[C@@H](CC(C)C)NC(=O)[C@H](CCCN)NC(=O)[C@H](Cc3ccc(OCC(=O)O)cc3)NC(=O)[C@H](Cc3ccc(-c4ccccc4)cc3)NC(=O)[C@H](Cc3ccc(OCC(=O)O)cc3)NC2=O)c1 [Compound 2212] ({CH2CO}-[Orn]Y(Carboxymethyl)D[Phe(3-Me)]Y(Carboxymethyl)[Bip]Y(Carboxymethyl)[Orn][dL][Dab][Cha][Val(3-OH)]SC[Dab][Aun]-OH; thioether N-14) | 10
